Laboratory results reported in ChEMBL document CHEMBL5236560, “Structure-Based Discovery of Potent CARM1 Inhibitors for Solid Tumor and Cancer Immunology Therapy” (J Med Chem, 2021).

What was measured:
[1] = target: T1, Histone-arginine methyltransferase CARM1 (Homo sapiens, UniProt Q86X55); experiment: Inhibition of human CARM1 (140 to 480 residues) incubated for 15 mins measured after 60 min by AlphaLISA assay
T1 sequence (Q86X55 whole entry): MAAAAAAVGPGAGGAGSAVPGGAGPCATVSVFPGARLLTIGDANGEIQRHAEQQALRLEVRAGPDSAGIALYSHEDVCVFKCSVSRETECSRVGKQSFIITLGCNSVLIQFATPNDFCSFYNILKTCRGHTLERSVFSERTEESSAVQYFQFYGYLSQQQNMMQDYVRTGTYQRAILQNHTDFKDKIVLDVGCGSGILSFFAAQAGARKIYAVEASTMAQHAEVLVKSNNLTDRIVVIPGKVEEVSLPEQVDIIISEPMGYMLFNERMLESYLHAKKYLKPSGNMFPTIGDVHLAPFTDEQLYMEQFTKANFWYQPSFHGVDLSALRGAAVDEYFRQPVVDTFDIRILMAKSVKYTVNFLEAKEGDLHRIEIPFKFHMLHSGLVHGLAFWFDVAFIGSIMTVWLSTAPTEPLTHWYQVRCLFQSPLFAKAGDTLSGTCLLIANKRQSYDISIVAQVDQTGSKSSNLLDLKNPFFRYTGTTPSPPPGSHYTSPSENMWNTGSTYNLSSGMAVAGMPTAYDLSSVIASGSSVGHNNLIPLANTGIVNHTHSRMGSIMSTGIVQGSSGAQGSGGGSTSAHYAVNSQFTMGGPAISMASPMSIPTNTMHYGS

A-375 [2] = experiment: Antiproliferative activity against human A-375 cells assessed as cell growth inhibition incubated for 6 days by SRB assay; type: functional, cell-based; details: A-375, 144 h
BT-549 = experiment: Antiproliferative activity against human BT-549 cells assessed as cell growth inhibition incubated for 6 days by SRB assay; type: functional, cell-based; details: BT-549, 144 h
A-375 [3] = experiment: Antitumor activity against human A-375 cells xenografted in po dosed nude mouse assessed as tumor growth inhibition at 75 mg/kg administered once daily measured after 21 days relative to control; type: functional; details: A-375, 504 h, time 21 day, read-out: TGI
A-375 [4] = experiment: Antitumor activity against human A-375 cells xenografted in po dosed nude mouse assessed as tumor growth inhibition at 100 mg/kg administered once daily measured after 21 days relative to control; type: functional; details: A-375, 504 h, time 21 day, read-out: TGI
[5] = Metabolic stability in rat liver microsomes assessed as parent compound remaining measured after 2 hrs; type: ADME, Microsome; details: read-out: Stability
[6] = Metabolic stability in mouse liver microsomes assessed as parent compound remaining measured after 2 hrs; type: ADME, Microsome; details: read-out: Stability
[7] = Metabolic stability in human liver microsomes assessed as parent compound remaining measured after 2 hrs; type: ADME, Microsome; details: read-out: Stability
[8] = Metabolic stability in dog liver microsomes assessed as parent compound remaining measured after 2 hrs; type: ADME, Canis lupus familiaris, Microsome; details: read-out: Stability
[9] = Tmax in ICR mouse at 10 mg/kg, po measured upto 24 hrs by UPLC analysis; type: ADME, organism-based; details: in vivo
[10] = AUC(0 to infinity) in ICR mouse at 10 mg/kg, po measured upto 24 hrs by UPLC analysis; type: ADME, organism-based; design: dose 10 mg/kg, time < 24 hrs, route po; details: in vivo
[11] = AUClast in ICR mouse at 10 mg/kg, po measured upto 24 hrs by UPLC analysis; type: ADME, organism-based; design: dose 10 mg/kg, time < 24 hrs, route po; details: in vivo
[12] = Half life in ICR mouse at 10 mg/kg, po measured upto 24 hrs by UPLC analysis; type: ADME, organism-based; details: in vivo
[13] = Cmax in ICR mouse at 10 mg/kg, po measured upto 24 hrs by UPLC analysis; type: ADME, organism-based; design: time < 24 hrs, dose 10 mg/kg, route po; details: in vivo
[14] = Metabolic stability in monkey liver microsomes assessed as parent compound remaining measured after 2 hrs; type: ADME, Macaca mulatta, Microsome; details: rhesus monkey, read-out: Stability

IC50 [1] [nM]	IC50 (A-375 [2]) [µM]	IC50 (BT-549) [µM]	Structure (SMILES)	also measured
> 1000			Cc1c(NC2CCOCC2)nc(-c2cccc(CNC(=O)[C@@H](N)CO)c2)nc1-c1ccncc1	
11.6	10.9	14.1	CNCCNCc1cccc(-c2nc(Nc3ccccc3)c(C)c(-c3cccnc3)n2)c1	
2.3	24.1	23.7	CNCCNCc1cccc(-c2nc(NC3CCOCC3)c(C)c(-c3ccc(O)cc3)n2)c1	
> 1000			Cc1noc(C)c1-c1nc(-c2cccc(CNC(=O)[C@@H](N)CO)c2)nc(NC2CCOCC2)c1C	
29.5			CNCCNCc1cccc(-c2nc(Cl)c(C)c(NC3CCOCC3)n2)c1	
6.15			CNCCNCc1cccc(-c2nc(NC3CCOCC3)c(C)c(-c3ccccn3)n2)c1	
0.65	> 50	> 50	CNCCNCc1cccc(-c2nc(NC3CCOCC3)c(C)c(-c3c(C)nn(C)c3C)n2)c1	
11.8			CNCCNCc1cccc(-c2nc(NC3CCOCC3)c(C)c(-c3cccc4[nH]ccc34)n2)c1	
2.94	> 50	> 50	CNCCNCc1cccc(-c2nc(NC3CCOCC3)c(C)c(-c3ccnn3C)n2)c1	
			CNC[C@@H](O)COc1ccc(Cl)c(-c2nc(-c3c(C)noc3C)c(C)c(N3CC4(CCN(C(=O)OC)CC4)C3)n2)c1	inhibition in vivo at 75 mg/kg (A-375 [3]): 24%; inhibition in vivo at 100 mg/kg (A-375 [4]): 82.6%
21.4			CNCCNCc1cccc(-c2nc(NC3CCOCC3)c(C)c(-c3cc4ccccc4s3)n2)c1	
2.46	> 50	> 50	CNCCNCc1cccc(-c2nc(-c3c(C)noc3C)c(C)c(N3CCS(=O)(=O)CC3)n2)c1	
26.9			CNCCNCc1cccc(-c2nc(NC3CCOCC3)c(C)c(-c3ccc(OC)cc3)n2)c1	
1.1	24.7	> 50	CNCCNCc1cccc(-c2nc(-c3c(C)noc3C)c(C)c(N3CCOCC3)n2)c1	
33.6			CNCCNCc1cccc(-c2nc(NC3CCOCC3)c(C)c(OCc3ccccc3)n2)c1	
> 1000			Cc1noc(C)c1-c1nc(-c2cccc(CNC(=O)[C@H](C)N)c2)nc(NC2CCOCC2)c1C	
31.5			CNCCNCc1cccc(-c2nc(NCc3ccccc3)c(C)c(NC3CCOCC3)n2)c1	
10.1			CNCCNCc1cccc(-c2nc(-c3c(C)noc3C)c(C)c(N3Cc4ccccc4C3)n2)c1	
4.37	12.7	32	CNCCNCc1cccc(-c2nc(NC3CCOCC3)c(C)c(-c3cccc4cnccc34)n2)c1	
> 1000			Cc1c(NC2CCOCC2)nc(-c2cccc(CNC(=O)[C@@H](N)CO)c2)nc1-c1ccccc1	
5.2			CNCCNCc1cccc(-c2nc(NC3CCOCC3)c(C)c(-c3ccc(S(C)(=O)=O)cc3)n2)c1	

IC50 [1] [nM]	IC50 (A-375 [2]) [µM]	IC50 (BT-549) [µM]	Structure (SMILES)	also measured
10.2			CNCCNCc1cccc(-c2nc(NC3CCOCC3)c(C)c(-c3ccccc3)n2)c1	
187			CNCCNCc1cccc(-c2nc(Nc3ccccc3)c(C)c(NC3CCOCC3)n2)c1	
5.13			CNCCNCc1cccc(-c2nc(NC3CCOCC3)c(C)c(-c3ccc(OC(F)(F)F)cc3)n2)c1	
3.84	18.2	25.2	CNCCNCc1cccc(-c2nc(NC3CCOCC3)c(C)c(-c3ccnc4[nH]ccc34)n2)c1	
19.6	6.7	8.2	CNCCNCc1cccc(-c2nc(Nc3ccccc3)c(C)c(-c3c(C)nn(C)c3C)n2)c1	
4.24	> 50	> 50	CNCCNCc1cccc(-c2nc(NC3CCN(S(C)(=O)=O)CC3)c(C)c(-c3c(C)noc3C)n2)c1	
11.5			CNCCNCc1cccc(-c2nc(-c3c(C)noc3C)c(C)c(N3CCN(C(C)=O)CC3)n2)c1	
6.07			CNCCNCc1cccc(-c2nc(NC3CCOCC3)c(C)c(-c3cccc4ncccc34)n2)c1	
0.92	45.5	> 50	CNCCNCc1cccc(-c2nc(NC3CCOCC3)c(C)c(-c3cccnc3)n2)c1	
> 1000			Cc1c(NC2CCOCC2)nc(-c2cccc(CNC(=O)[C@H](C)N)c2)nc1-c1ccncc1	
21.7			CNCCNCc1cccc(-c2nc(-c3c(C)noc3C)c(C)c(N3CCCCC3)n2)c1	
3.78	> 50	> 50	CNCCNCc1cccc(-c2nc(NC3CCOCC3)c(C)c(-c3cn(C)nc3C)n2)c1	
4.29	> 50	> 50	CNCCNCc1cccc(-c2nc(NC3CCOCC3)c(C)c(-c3cncnc3)n2)c1	
60			CNCCNCc1cccc(-c2nc(NC3CCOCC3)c(C)c(Oc3ccccc3)n2)c1	
0.78	> 50	> 50	CNCCNCc1cccc(-c2nc(-c3c(C)noc3C)c(C)c(N3CCN(S(C)(=O)=O)CC3)n2)c1	
3.68	44.3	> 50	CNCCNCc1cccc(-c2nc(NC3CCOCC3)c(C)c(-c3ccncc3)n2)c1	
29.4			CNCCNCc1cccc(-c2nc(NC3CCOCC3)c(C)c(-c3cc4cccc(OC)c4[nH]3)n2)c1	
1.13	8.2	11.9	CNCCNCc1cccc(-c2nc(-c3c(C)noc3C)c(C)c(N3Cc4cccnc4C3)n2)c1	
1.63	> 50	> 50	CNCCNCc1cccc(-c2nc(NC3CCOCC3)c(C)c(-c3c(C)noc3C)n2)c1	remaining at 2 h [5]: 93.4%; remaining at 2 h [6]: 90%; remaining at 2 h [7]: 93.1%; remaining at 2 h [8]: 85.5%; Tmax [9]: 1.33 h; AUC(0-inf) [10]: 209 ng·h/mL; AUC(0-t) at 24 h [11]: 199 ng·h/mL; half-life [12]: 394 min; Cmax [13]: 95.4 ng/mL; remaining at 2 h [14]: 86.1%
> 1000			Cc1c(NC2CCOCC2)nc(-c2cccc(CNC(=O)[C@H](C)N)c2)nc1-c1ccccc1	
13.1			CNCCNCc1cccc(-c2nc(-c3c(C)noc3C)c(C)c(N3CCN(C)CC3)n2)c1	
